Columns and labels:
BSA [1] = target: T1, BSA (Bos taurus, UniProt P02769); assay: Extraction efficiency of parent SeC after deproteinization (BSA, NEM-pretreated BSA)
Method: The spiked matrix was obtained by adding 10 µL of SeC solution into 10 µL of blank plasma or 5% BSA solution. To extract the parent SeC from the prepared spiked matrix (20 µL), 50 µL of ACN were added followed by rigorous vortexing. The mixture was centrifuged (30,000 g, 10 min) to obtain the extract. Two µL of the extract were injected into the liquid chromatography-mass spectrometry (LC-MS, Thermo TSQ Quantum Ultra) analyzer. Details about LC conditions (column, mobile phase and flow rate) and MS parameters were listed in Supplementary Table 1.
To clarify the role of albumin thiols, 10 µL of 5% BSA solution were pre-incubated with NEM (10 µL, 0.4 M in DMA) for 10 min before being mixed with SeC solution (10 µL). Again, 50 µL of ACN were used for extraction and 2 µL of the extract were injected into LC-MS for analysis.

C1498 cells = assay: Cytotoxicity of SeC (CellTiter-Glo); conditions: C1498 leukemic cells, 24 hr, within the concentration range tested
Method: C1498 cells were cultured in DMEM supplemented with FBS (10%, v/v), penicillin (100 unit/mL) and streptomycin (100 µg/mL). Cells under the exponential growth phase were used for the cytotoxicity study. […] The stock solutions were diluted with cell culture medium till target concentration range. Briefly, 350 µL of cell suspension (0.2 × 10^6 cells/mL) were mixed with equal volume of SeC solution. The mixture was aliquoted to 96-well plate (100 µL per well) and incubated for 24 hours. Cell viability was determined using CellTiter-Glo kit (Promega, G7571). Cells treated with the appropriate solvent were used as the control. Cell survival rate was calculated as the percentage of […] in SeC-treated cells/control group.

BSA [2] = target: T1, BSA; assay: Albumin binding degree by ultrafiltration; format: in vitro ADME, bovine; set-up: purchased Thermo Fisher; conditions: 5% albumin solution, SeC 20 µg/mL
Method: Two hundred µL of SeC solution were mixed with equal volume of H2O (control) or 5% BSA solution (final SeC concentration being 20 µg/mL). The mixture was transferred into an ultrafiltration tube (cut off 10 kDa, Sigma-Aldrich, 13239E) and centrifuged (2000 g and 5 min) to obtain the ultra-filtrate. Twenty µL of the ultra-filtrate were mixed with 50 µL of ACN and analyzed for SeC in parent form. Albumin binding degree was calculated as the percentage of SeC peak area in BSA solution in relative to that in H2O.

human serum albumin = human serum albumin (Homo sapiens, UniProt P02768); assay: XAS linear combination fitting of SeC-human plasma mixture (SeC-HP); conditions: XANES linear combination fitting, total SeC 20 µg/ml; for SeC-HSA (%): albumin-bound share in SeC-human plasma mixture; for SeC (%): free SeC share in SeC-human plasma mixture
Method: SeC solution (40 µL; 2 mg/mL) was mixed with HSA (50 mg/mL in H2O; […]) and kept at room temperature for 30 min. The crude material was separated on a Superdex 200 Increase 10/300 GL column (GE Healthcare). The mobile phase consisted of ACN/H2O (5/95; v/v) at a flow rate of 0.75 mL/min. A total of 40 fractions (1 ml per fraction) approximately were collected, pooled and lyophilized (selenol-human serum albumin conjugate; SeC-HSA).
The mixture of SeC and human plasma (SeC-HP) was prepared. Generally, SeC solution (20 µL; 2 mg/mL) was mixed with 2 mL human plasma, kept at room temperature for 10 min and lyophilized. Selenium K-edge XAS measurements were performed in QEXAFS mode using a Si(311) double-crystal monochromator in CLAESS beamline at ALBA synchrotron light facility (Barcelona, Spain). Self-supported 5 mm pellets of SeC-HSA or SeC-HP (~20 mg) were measured in fluorescence mode using a 5 elements Silicon drift detector. For the reference compounds, the appropriate amount of pure SeC was mixed with cellulose to form pellets with an optimum absorption jump in transmission mode. Transmission was measured with ionization chambers filled with appropriate mixtures of N2 and Kr gases. To avoid radiation damage, all measurements were performed at liquid N2 temperature using the cryostat available at the beamline. Data analysis was performed using Demeter software package (version 0.9.26)[23].
In order to confirm the albumin binding, SeC was firstly allowed to react with HSA. The crude material was then separated by size exclusion chromatography and the eluent corresponding to […] was collected and lyophilized (SeC-HSA). SeC-HSA was subsequently subjected to XAS measurement and compared to the SeC itself. […] In addition, since the XAS spectra of mixtures can be expressed as an additive combination of its constituents, a linear combination fitting analysis using the reference spectra of SeC-HSA and SeC was carried out to assess the amount of each form in the mixture of SeC and human plasma (SeC-HP).
27 Supplementary Table 3. Linear combination fitting results of X-ray absorption near
28 edge spectra. The fitting was performed over the spectra for selenocompound-human plasma
29 mixture between -20 and 50 eV keeping E0 fixed and equal to 0 eV.

[3] = Pharmacokinetic study in mouse; conditions: for clearance / half-life: C57BL/6 albino, iv
Method: Blank plasma (10 µL) was spiked with 5 µL of SeC solution. NEM (10 µL, 0.4 M in DMA) and TCEP (5 µL, 0.2 M in H2O) were successively added to the spiked plasma. The mixture was vortexed for 30 sec and left for 10 min at room temperature before deproteinization using 50 µL of ACN. Two µL of processed sample were injected for LC-MS analysis (LC-MS parameters listed in Supplementary Table 2).
All animal experiments were approved by the Stockholm Southern Ethical Committee and performed in accordance with Swedish Animal Welfare Law (ethical permit no. ID 1031). CysSe2 (0.7 mg/mL) or MeSeA (1 mg/mL) was prepared in DPBS and the pH was adjusted to around 7.4. Ebselen or p-XSC was first dissolved in DMSO/Cremophor EL (1:1, v/v) at 5 mg/mL and then diluted with DPBS till 0.5 mg/mL. CysSe2 or MeSeA was injected into C57BL/6 albino mouse via the tail vein at a dose of 5 mg/kg; while the dose for ebselen and p-XSC was 2 mg/kg. Approximately 50 µL of blood were collected from the facial vein at different time points into EDTA-coated vials. SeC concentration in plasma was analyzed as described under section “Analysis of SeC using RECID”. The detected concentrations were fitted to a bolus injection in a one-compartment open model and the pharmacokinetic parameters were calculated using WinNonLin software (version 2.0).

[4] = Stability of selenocompound in plasma and selenol derivative in processed sample (RECID); format: in vitro ADME, human
Method: 48 Supplementary Table 7. Stability of selenocompound in plasma and selenol derivative in
49 processed sample. SeC-spiked plasma was treated as indicated and then analyzed using
50 RECID. SeC-NEM in processed sample was treated in the same way and then subjected to
51 LC-MS analysis. Stability was shown as the percentage of the peak area after indicated
52 treatment to that from base line value. SeC concentrations were 20 µg/mL. Results are shown
53 as the mean ± SD of three technical replicates.
SeC Sample Type Treatment
RT/24 hr 4 °C/24 hr -20 °C/24 hr Freeze-Thaw/5 Cycles

[5] = 5% BSA (pristine albumin) after deproteinization, SeC 20 µg/mL
[6] = NEM pretreated-BSA (albumin thiols blocked) after deproteinization, SeC 20 µg/mL
[7] = Spiked Plasma, 4 °C/24 hr, SeC 20 µg/mL
[8] = Spiked Plasma, -20 °C/24 hr, SeC 20 µg/mL
[9] = Spiked Plasma, Freeze-Thaw/5 Cycles, SeC 20 µg/mL
[10] = Spiked Plasma, RT/24 hr, SeC 20 µg/mL

Sequence of human serum albumin (P02768 25-609): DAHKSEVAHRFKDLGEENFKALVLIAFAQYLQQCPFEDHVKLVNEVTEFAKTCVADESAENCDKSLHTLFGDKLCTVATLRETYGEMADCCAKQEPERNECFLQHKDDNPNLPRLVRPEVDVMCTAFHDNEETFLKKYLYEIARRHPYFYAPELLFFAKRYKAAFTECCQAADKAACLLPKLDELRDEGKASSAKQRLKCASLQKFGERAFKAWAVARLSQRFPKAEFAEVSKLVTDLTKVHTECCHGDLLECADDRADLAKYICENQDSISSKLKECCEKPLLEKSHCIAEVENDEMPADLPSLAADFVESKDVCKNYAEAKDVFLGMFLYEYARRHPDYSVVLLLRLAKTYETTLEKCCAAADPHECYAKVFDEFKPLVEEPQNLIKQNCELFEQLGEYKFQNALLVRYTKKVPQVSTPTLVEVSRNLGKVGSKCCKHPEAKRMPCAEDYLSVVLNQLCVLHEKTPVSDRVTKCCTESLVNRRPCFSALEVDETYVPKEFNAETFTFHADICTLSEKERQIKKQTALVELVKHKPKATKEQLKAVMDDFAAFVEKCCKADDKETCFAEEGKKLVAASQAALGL
T1 sequence (P02769 25-607): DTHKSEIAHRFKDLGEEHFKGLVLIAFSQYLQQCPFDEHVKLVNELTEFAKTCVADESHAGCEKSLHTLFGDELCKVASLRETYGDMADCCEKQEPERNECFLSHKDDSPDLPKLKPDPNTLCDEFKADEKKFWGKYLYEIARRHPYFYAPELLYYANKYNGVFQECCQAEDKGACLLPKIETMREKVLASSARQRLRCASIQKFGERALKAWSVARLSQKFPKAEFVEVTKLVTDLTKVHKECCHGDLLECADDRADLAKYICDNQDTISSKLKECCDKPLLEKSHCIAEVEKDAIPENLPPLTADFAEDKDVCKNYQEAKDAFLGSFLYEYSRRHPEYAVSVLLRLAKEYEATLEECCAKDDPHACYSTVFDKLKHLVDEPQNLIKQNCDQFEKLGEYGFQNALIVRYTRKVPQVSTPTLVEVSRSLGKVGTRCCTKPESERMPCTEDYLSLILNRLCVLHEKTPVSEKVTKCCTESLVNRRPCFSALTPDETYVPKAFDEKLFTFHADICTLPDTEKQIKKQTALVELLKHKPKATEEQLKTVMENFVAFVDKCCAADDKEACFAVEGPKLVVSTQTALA

Compound	Extraction efficiency (BSA [1]; [5])	Cytotoxicity (C1498 cells)	Albumin binding degree (BSA [2])	SeC-HSA (%) (human serum albumin)	SeC (%) (human serum albumin)	Extraction efficiency (BSA [1]; [6])	Stability (peak area vs base line) [4, 7]	Stability (peak area vs base line) [4, 8]	Stability (peak area vs base line) [4, 9]	Stability (peak area vs base line) [4, 10]	clearance ([3]; plasma)	half-life ([3]; plasma)	also measured
C[Se]CC[C@H](N)C(=O)O [SeMet, Selenomethionine]	over 95%	no cytotoxic effect	< 3%										
N#C[Se]Cc1ccc(C[Se]C#N)cc1 [p-XSC, p-xyleneselenocyanate]		showed cytotoxicity	52–100%	100.0%	0%								clearance ([3]; in vivo): 0.0967 mL/min; half-life ([3]; in vivo): 30.6 ± 7.2 min
O=c1c2ccccc2[se]n1-c1ccccc1 [Ebselen]	9.3%	showed cytotoxicity	52–100%	91.5%	8.5%	90.7%	113.1 ± 0.5%	108.2 ± 3.2%	97.2 ± 2.7%	110.3 ± 1.8%	0.177 mL/min	13.2 ± 2.4 min	
C[Se]C[C@H](N)C(=O)O [MeSeCys, methylselenocysteine]		no cytotoxic effect	< 3%										Extraction efficiency (BSA [1]; bovine, 20 µg/mL): over 95%
C[Se](=O)O [MeSeA, methylseleninic acid]	0%	showed cytotoxicity	52–100%	100.0%	0%	94.8%	108.9 ± 4.8%	116.0 ± 3.2%	117.3 ± 0.5%	110.9 ± 2.0%			Stability (peak area vs base line) ([4]; Processed sample (SeC-NEM derivative), 4 °C/24 hr): 106.7 ± 0.5%; Stability (peak area vs base line) ([4]; Processed sample (SeC-NEM derivative), -20 °C/24 hr): 103.2 ± 1.0%; Stability (peak area vs base line) ([4]; Processed sample (SeC-NEM derivative), Freeze-Thaw/5 Cycles): 104.3 ± 0.4%; Stability (peak area vs base line) ([4]; Processed sample (SeC-NEM derivative), RT/24 hr): 114.3 ± 0.3%
NC(C[Se][Se]CC(N)C(=O)O)C(=O)O (stereo not shown) [CysSe2, Selenocystine]	21.4%	showed cytotoxicity	52–100%	80.4%	19.6%	79.6%	100.9 ± 7.9%	99.6 ± 6.4%	102.2 ± 0.6%	98.6 ± 7.1%	0.642 mL/min	8.4 ± 1.2 min	Total exposure compared to that of ebselen ([3]; intravenous, CysSe2 5 mg/kg vs ebselen 2 mg/kg): around 72%; Exposure adjusted for dose, relative to ebselen ([3]; intravenous, dose-adjusted): less than one third
